Target: T1, DPP-IV, obtained from porcine kidneys (Sus scrofa, UniProt P22411)
T1 construct: DPP-IV, obtained from porcine kidneys; from tissue; host or cells: porcine kidney
Experiment: Measurement of DPPIV inhibiting effects (Gly-Pro-p-nitroanilide, absorbance at 405 nm)
Format: biochemical
Settings: porcine kidney DPP-IV 10 mU/mL, 20 min preincubation, Gly-Pro-p-nitroanilide 0.33 mM, pH 7.4
Protocol: Measurement of DPPIV Inhibiting Effects
DPP-IV, obtained from porcine kidneys, was dissolved in a reaction buffer solution (50 mM Tris-HCl, pH 7.4, 0.1% BSA) such that the concentration of DPP-IV was at 10 mU/mL. This solution (110 μl) was placed into test tubes, to which compounds to be tested were further added at a quantity of 15 μl and incubated at room temperature for 20 minutes. Twenty-five microliters of a solution in which Gly-Pro-p-nitroanilide was dissolved at 2 mM was added (final concentration, 0.33 mM) to start the enzymatic reaction. The reaction time was 20 minutes. The reaction was stopped by the addition of 25 μl of 1 N phosphoric acid.

T1 sequence (P22411 whole entry): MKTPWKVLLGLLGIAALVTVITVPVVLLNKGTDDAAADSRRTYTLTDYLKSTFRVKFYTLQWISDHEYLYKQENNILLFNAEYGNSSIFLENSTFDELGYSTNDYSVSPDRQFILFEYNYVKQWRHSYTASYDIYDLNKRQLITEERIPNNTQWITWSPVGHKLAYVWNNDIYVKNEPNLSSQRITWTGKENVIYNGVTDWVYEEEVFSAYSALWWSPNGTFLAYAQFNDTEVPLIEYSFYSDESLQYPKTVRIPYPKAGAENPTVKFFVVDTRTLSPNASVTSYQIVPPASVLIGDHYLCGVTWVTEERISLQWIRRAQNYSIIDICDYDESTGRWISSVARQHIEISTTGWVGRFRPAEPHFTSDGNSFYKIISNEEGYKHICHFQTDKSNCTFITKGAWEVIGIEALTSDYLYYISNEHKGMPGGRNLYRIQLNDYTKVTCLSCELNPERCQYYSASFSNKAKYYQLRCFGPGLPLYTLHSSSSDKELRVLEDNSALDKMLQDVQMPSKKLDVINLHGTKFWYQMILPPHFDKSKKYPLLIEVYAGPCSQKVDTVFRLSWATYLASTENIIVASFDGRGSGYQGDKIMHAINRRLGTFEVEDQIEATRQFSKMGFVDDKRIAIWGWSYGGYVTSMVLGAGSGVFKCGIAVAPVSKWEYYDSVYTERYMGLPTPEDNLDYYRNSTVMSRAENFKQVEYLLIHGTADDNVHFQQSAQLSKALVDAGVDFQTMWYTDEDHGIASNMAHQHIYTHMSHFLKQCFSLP

IC50 [nM] | SMILES
106 | Cc1nc2ccccn2c1S(=O)(=O)c1ncn(C(=O)N(C)C)n1 [Example 51, 3-(2-Methylimidazo[1,2-a]pyridin-3-yl)sulfonyl-1-dimethylcarbamoyl-1H-1,2,4-triazole]
311 | CN(C)C(=O)n1cnc(S(=O)(=O)C2CCCCC2)n1 [Example 15, 3-Cyclohexylsulfonyl-1-dimethylcarbamoyl-1H-1,2,4-triazole]
15.7 | CN(C)C(=O)n1cnc(S(=O)(=O)N(C)c2ccc(Cl)cc2)n1 [Example 58, 3-[N-(4-chlorophenyl)-N-methylamino]sulfonyl-1-dimethylcarbamoyl-1H-1,2,4-triazole]
1510 | Cc1cc(C)c(S(=O)(=O)c2ncn(C(=O)N(C)c3ccccc3)n2)c(C)c1 [Example 35, 3-(2,4,6-Trimethylphenyl)sulfonyl-1-(N-methyl-N-phenylcarbamoyl)-1H-1,2,4-triazole]
335 | Cc1ccc(S(=O)(=O)c2ncn(C(=O)N(C)C)n2)cc1 [Example 60, 3-(4-Toluenesulfonyl)-1-dimethylcarbamoyl-1H-1,2,4-triazole]
351 | CN(C)C(=O)n1cnc(S(=O)(=O)c2cccc(Br)n2)n1 [Example 53, 3-(6-Bromo-2-pyridyl)sulfonyl-1-dimethylcarbamoyl-1H-1,2,4-triazole]
694 | CN(C)C(=O)n1cnc(SC2CCOc3ccccc32)n1 (stereo not shown) [Example 10, 3-(Chroman-4-yl)thio-1-dimethylcarbamoyl-1H-1,2,4-triazole]
657 | CN(C)C(=O)n1cnc(S(=O)(=O)Cc2ccc(F)cc2)n1 [Example 4, 3-(4-Fluorobenzyl)sulfonyl-1-dimethylcarbamoyl-1H-1,2,4-triazole]
164 | CN(C)C(=O)n1cnc(S(=O)(=O)N2CCCCC2)n1 [Example 54, 3-(Piperidin-1-yl)sulfonyl-1-dimethylcarbamoyl-1H-1,2,4-triazole]
1370 | CC(C)CCS(=O)(=O)c1ncn(C(=O)N(C)C)n1 [Example 20, 3-(3-Methylbutyl)sulfonyl-1-dimethylcarbamoyl-1H-1,2,4-triazole]
4690 | CN(C)C(=O)n1cnc(SCc2ccccc2)n1 [Example 1, 3-Benzylthio-1-dimethylcarbamoyl-1H-1,2,4-triazole]
784 | CCN(CC)C(=O)n1cnc(S(=O)(=O)Cc2ccccc2)n1 [Example 3, 3-Benzylsulfonyl-1-diethylcarbamoyl-1H-1,2,4-triazole]

SMILES | IC50 [nM]
CCN(CC)C(=O)n1cnc(S(=O)(=O)c2c(C)cc(C)cc2C)n1 [Example 34, 3-(2,4,6-Trimethylphenyl)sulfonyl-1-diethylcarbamoyl-1H-1,2,4-triazole] | 6630

Source: US7238720B2, “Pharmaceutical use of N-carbamoylazole derivatives” (Eisai R & D Management Co. Ltd., priority 2001, dated 2007)
